Measured values reported in patent publication US10730911B2, “Backbone-cyclized peptidomimetics with GLP-1R modulating activity” (POLYPHOR AG, priority 2015, dated 2020).
Where a SMILES comes first, the peptide text is derived from it. [ ]: non-standard residue; d: D form. Trp(5-OH) = N[C@@H](Cc1c[nH]c2ccc(O)cc12)C(=O)O; His(π-Bn) = N[C@@H](Cc1cncn1Cc1ccccc1)C(=O)O; Phe(4-CN) = N#Cc1ccc(C[C@H](N)C(=O)O)cc1; Phe(4-NH2) = Nc1ccc(C[C@H](N)C(=O)O)cc1; 3Pal = N[C@@H](Cc1cccnc1)C(=O)O; 4Pal = N[C@@H](Cc1ccncc1)C(=O)O; Cit = NC(=O)NCCC[C@H](N)C(=O)O; Ac6c = NC1(C(=O)O)CCCCC1; Ac5c = NC1(C(=O)O)CCCC1

Molecular target: T1, human glucagon-like peptide-1 receptor (GLP-1R) (Homo sapiens, UniProt P43220)
T1 construct: host or cells: CHO chAMPion cells
Assay: Human GLP-1 receptor cell-based assay (flash luminescence, Target Activation phase)
Conditions: CHO chAMPion cells stably co-expressing human GLP-1R, Photina and cAMP-activated calcium channel; agonist activity; normalization by forskolin at 10 μM; ^a) values from single experiment; read-out: EC50 (μM) Target Activation (TA)
Description: CHO chAMPion cells (Axxam SpA; S. Corazza, Assay Drug Dev. Technol. 2009, 7, 304-307) stably co-expressing the human glucagon-like peptide-1 receptor (GLP-1R), the Ca^2+-sensitive photoprotein PHOTINA® (S. Bovolenta et al., J. Biomol. Screen. 2007, 12, 694-704) and a mutated cAMP-activated calcium ion channel (WO2004/083803 A2) were used to monitor GLP-1R signaling after stimulation with an agonist. Activation of the Gas-coupled GPCR GLP-1R was monitored by measuring the flash luminescence of the Ca^2+-sensitive photoprotein as reporter system with FLIPR^TETRA screening instrumentation (Molecular Devices) upgraded with an ICCD Camera (MDC). For data quality check and data analysis the Genedata SCREENER® software was used.
The reference agonist GLP-1 (glucagon-like peptide-1 amide fragment 7-36) and forskolin were purchased from Sigma (cat. G8147 and F6886, respectively) and prepared according to each ligand's specifications. All handling of ligands were done to ensure proper control throughout the experiments. The steps of the implemented workflow and data analysis are mainly as follows:
Stably transfected chAMPion cells are seeded 10000 c/w in 384 MTP in Dulbecco's MEM/nutrient mix F12 (BioWhittaker cat. BE04-687F/U1; 500 mL) supplemented with sodium pyruvate (BioWhittaker cat. BE13-115E; 5 mL of 100 mM solution), HEPES (BioWhittaker cat. BE17-737E; 6.5 mL of 1M solution), sodium bicarbonate (BioWhittaker cat. BE17-613E; 25 mL of 7.5% solution), fetal bovine serum (Euroclone cat. ECS 0180L; 50 mL), penicillin-streptomycin (BioWhittaker cat. DE17-602E; 5 mL of 100×solution), 1 mg/mL G418 (selection antibiotic for GLP-1R) and 200 μg/mL hygromycin in 25 μL/well for 24 hours. On the day of the experiment, plates are removed from the incubator, freed from the growth medium, equilibrated at room temperature for 1 h, loaded with 30 μl/well of Ca^2+ free Tyrode's buffer containing 20 μM coelentrazine and 500 μM IBMX, and incubated for 4 hours at room temperature.
All compounds were tested at 8 concentrations, starting from 50 μM in quadruplicate, intra-plate (dilution step 1:2.15) to determine EC50 values. After incubation, the volume in all the wells is flattened to 20 αL by aspiration with a CYBIO®-VARIO pipettor. First Injection (10 μL of test compounds in Ca^2+ free Tyrode's buffer, DMSO 0.5% v/v and BSA 0.01%; or 10 μL of reference compounds GLP-1 or forskolin in Ca′ free Tyrode's buffer, DMSO 0.5% v/v and BSA 0.01%) is performed by the FLIPR^TETRA and the kinetic response is optionally monitored over a period of 60 seconds. Incubation for 30 minutes at room temperature is followed by the Second Injection (Tyrode's buffer+10 mM CaCl2)) and the kinetic response is monitored over a period of 60 seconds.
The kinetic response is divided into two distinct phases: monitoring the kinetic response after the First Injection, termed Compound Addition (CA), and monitoring the kinetic response after the Second Injection of 10 mM CaCl2, termed Target Activation (TA). Agonist activity of compounds is evaluated in the Target Activation (TA) phase and it is based on normalization to TA activation by forskolin at 10 μM or GLP-1 at 3.16 nM (EC100)
A good correlation was observed between EC50, data normalized by forskolin and by GLP-1.

T1 sequence (P43220 24-463): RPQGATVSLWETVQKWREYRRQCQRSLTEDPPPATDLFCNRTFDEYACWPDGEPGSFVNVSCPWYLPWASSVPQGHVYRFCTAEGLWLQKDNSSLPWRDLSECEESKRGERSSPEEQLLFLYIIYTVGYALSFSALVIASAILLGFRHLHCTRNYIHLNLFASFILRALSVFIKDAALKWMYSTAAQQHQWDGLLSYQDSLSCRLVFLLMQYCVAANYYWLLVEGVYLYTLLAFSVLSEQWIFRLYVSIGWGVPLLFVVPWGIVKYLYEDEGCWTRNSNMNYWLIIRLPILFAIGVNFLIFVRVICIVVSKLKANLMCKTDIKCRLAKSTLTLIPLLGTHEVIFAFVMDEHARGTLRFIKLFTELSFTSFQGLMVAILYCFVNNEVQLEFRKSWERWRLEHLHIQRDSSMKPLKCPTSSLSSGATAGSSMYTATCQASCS

| EC50 [µM] | SMILES |
| --- | --- |
| 0.62 | COc1ccc(C[C@@H]2NC(=O)[C@H](CC(C)C)NC(=O)[C@H](CCC(=O)O)NC(=O)[C@H](Cc3ccccc3)NC(=O)C3(CCCCC3)NC(=O)[C@H]3CCCN3C(=O)[C@H](Cc3ccc(O)cc3)NC(=O)[C@H](CCC(=O)O)NC(=O)[C@H](Cc3c[nH]c4ccccc34)NC(=O)[C@H](C)NC2=O)cc1 [compound 29, cyclo(-Phe-Glu-Leu-Tyr(Me)-Ala-Trp-Glu-Tyr-^DPro-Chx-)] (cyclo(FELY(Me)AWEY[dP][Ac6c])) |
| 0.68 | CC(C)C[C@@H]1NC(=O)[C@H](CCC(=O)O)NC(=O)[C@H](Cc2ccccc2)NC(=O)C2(CCCCC2)NC(=O)[C@H]2CCCN2C(=O)[C@H](Cc2ccccc2)NC(=O)[C@H](CCC(=O)O)NC(=O)[C@H](Cc2c[nH]c3ccccc23)NC(=O)[C@H](C)NC(=O)[C@H](Cc2ccc(O)cc2)NC1=O [compound 31, cyclo(-Phe-Glu-Leu-Tyr-Ala-Trp-Glu-Phe-^DPro-Chx-)] (cyclo(FELYAWEF[dP][Ac6c])) |
| 0.73 | COc1ccc(C[C@@H]2NC(=O)[C@H](CC(C)C)NC(=O)[C@H](CCC(=O)O)NC(=O)[C@H](Cc3ccccc3)NC(=O)C3(CCCCC3)NC(=O)[C@H]3CCCN3C(=O)[C@H](Cc3ccc(OC)cc3)NC(=O)[C@H](CCC(=O)O)NC(=O)[C@H](Cc3c[nH]c4ccccc34)NC(=O)[C@H](C)NC2=O)cc1 [compound 34, cyclo(-Phe-Glu-Leu-Tyr(Me)-Ala-Trp-Glu-Tyr(Me)-^DPro-Chx-)] (cyclo(FELY(Me)AWEY(Me)[dP][Ac6c])) |
| 0.85 | CC(C)C[C@@H]1NC(=O)[C@H](CCC(=O)O)NC(=O)[C@H](Cc2ccccc2)NC(=O)C2(CCCCC2)NC(=O)[C@H]2CCCN2C(=O)[C@H](Cc2cncn2Cc2ccccc2)NC(=O)[C@H](CCC(=O)O)NC(=O)[C@H](Cc2c[nH]c3ccccc23)NC(=O)[C@H](C)NC(=O)[C@H](Cc2ccc(O)cc2)NC1=O [compound 36, cyclo(-Phe-Glu-Leu-Tyr-Ala-Trp-Glu-His(Bn)-^DPro-Chx-)] (cyclo(FELYAWE[His(π-Bn)][dP][Ac6c])) |
| 0.88 | CC(C)C[C@@H]1NC(=O)[C@H](CCC(=O)O)NC(=O)[C@H](Cc2ccccc2)NC(=O)C2(CCCCC2)NC(=O)[C@H]2CCCN2C(=O)[C@H](Cc2ccc(O)cc2)NC(=O)[C@H](CCC(=O)O)NC(=O)[C@H](Cc2c[nH]c3ccccc23)NC(=O)[C@H](C)NC(=O)[C@H](Cc2ccc(C#N)cc2)NC1=O [compound 37, cyclo(-Phe-Glu-Leu-Phe(4CN)-Ala-Trp-Glu-Tyr-^DPro-Chx-)] (cyclo(FEL[Phe(4-CN)]AWEY[dP][Ac6c])) |
| 1 ± 0.1 | CC(C)C[C@@H]1NC(=O)[C@H](CCC(=O)O)NC(=O)[C@H](Cc2ccccc2)NC(=O)C2(CCCCC2)NC(=O)[C@H]2CCCN2C(=O)[C@H](Cc2c[nH]cn2)NC(=O)[C@H](CCC(=O)O)NC(=O)[C@H](Cc2c[nH]c3ccccc23)NC(=O)[C@H](C)NC(=O)[C@H](Cc2ccc(O)cc2)NC1=O [compound 39, cyclo(-Phe-Glu-Leu-Tyr-Ala-Trp-G lu-H is-^DP ro-Chx-)] (cyclo(FELYAWEH[dP][Ac6c])) |
| 0.83 ± 0.6 | CC(C)C[C@@H]1NC(=O)[C@H](CCC(=O)O)NC(=O)[C@H](Cc2ccccc2)NC(=O)C2(CCCCC2)NC(=O)[C@H]2CCCN2C(=O)[C@H](Cc2cccnc2)NC(=O)[C@H](CCC(=O)O)NC(=O)[C@H](Cc2c[nH]c3ccccc23)NC(=O)[C@H](C)NC(=O)[C@H](Cc2ccc(O)cc2)NC1=O [compound 41, cyclo(-Phe-Glu-Leu-Tyr-Ala-Trp-Glu-3Pal-^DPro-Chx-)] (cyclo(FELYAWE[3Pal][dP][Ac6c])) |
| 2.2 ± 1 | CC(C)C[C@@H]1NC(=O)[C@H](CCC(=O)O)NC(=O)[C@H](Cc2ccccc2)NC(=O)C2(CCCCC2)NC(=O)[C@H]2CCCN2C(=O)[C@H](CCCNC(=N)N)NC(=O)[C@H](CCC(=O)O)NC(=O)[C@H](Cc2c[nH]c3ccccc23)NC(=O)[C@H](C)NC(=O)[C@H](Cc2ccc(O)cc2)NC1=O [compound 42, cyclo(-Phe-Glu-Leu-Tyr-Ala-Trp-Glu-Arg-^DPro-Chx-)] (cyclo(FELYAWER[dP][Ac6c])) |
| 2.9 ± 0.7 | CC(C)C[C@@H]1NC(=O)[C@H](CC(C)C)NC(=O)[C@H](CCC(=O)O)NC(=O)[C@H](Cc2ccccc2)NC(=O)C2(CCCC2)NC(=O)[C@H]2CCCN2C(=O)[C@H](Cc2ccccc2)NC(=O)[C@H](CCC(=O)O)NC(=O)[C@H](Cc2c[nH]c3ccccc23)NC(=O)[C@H](C)NC1=O [compound 44, cyclo(-Phe-Glu-Leu-Leu-Ala-Trp-Glu-Phe-^DPro-Cyp-)] (cyclo(FELLAWEF[dP][Ac5c])) |

The remaining lines, values behind:

| SMILES | EC50 [µM] |
| --- | --- |
| C[C@@H]1NC(=O)[C@H](Cc2ccc(O)cc2)NC(=O)[C@H](CCC(N)=O)NC(=O)[C@H](Cc2c[nH]c3ccccc23)NC(=O)[C@H](Cc2ccccc2)NC(=O)C2(CCCCC2)NC(=O)[C@H]2CCCN2C(=O)[C@H](Cc2ccc(N)cc2)NC(=O)[C@H](CCC(=O)O)NC(=O)[C@H](Cc2c[nH]c3ccccc23)NC1=O [compound 30, cyclo(-Phe-Trp-Gln-Tyr-Ala-Trp-Glu-Phe(4NH2)-^DPro-Chx-)] (cyclo(FWQYAWE[Phe(4-NH2)][dP][Ac6c])) | 0.63 |
| COc1ccc(C[C@@H]2NC(=O)[C@H](Cc3ccccc3)NC(=O)C3(CCCCC3)NC(=O)[C@H]3CCCN3C(=O)[C@H](Cc3ccc(O)cc3)NC(=O)[C@H](CCC(=O)O)NC(=O)[C@H](Cc3c[nH]c4ccccc34)NC(=O)[C@H](C)NC(=O)[C@H](Cc3ccc(O)cc3)NC(=O)[C@H](CCC(N)=O)NC2=O)cc1 [compound 32, cyclo(-Phe-Tyr(Me)-Gln-Tyr-Ala-Trp-Glu-Tyr-^DPro-Chx-)] (cyclo(FY(Me)QYAWEY[dP][Ac6c])) | 0.92 ± 0.31 |
| C[C@@H]1NC(=O)[C@H](Cc2ccc(O)cc2)NC(=O)[C@H](CCC(N)=O)NC(=O)[C@H](Cc2ccncc2)NC(=O)[C@H](Cc2ccccc2)NC(=O)C2(CCCCC2)NC(=O)[C@H]2CCCN2C(=O)[C@H](Cc2ccc(O)cc2)NC(=O)[C@H](CCC(=O)O)NC(=O)[C@H](Cc2c[nH]c3ccccc23)NC1=O [compound 33, cyclo(-Phe-4Pal-Gln-Tyr-Ala-Trp-Glu-Tyr-^DPro-Chx-)] (cyclo(F[4Pal]QYAWEY[dP][Ac6c])) | 0.99 ± 0.37 |
| C[C@@H]1NC(=O)[C@H](Cc2ccc(O)cc2)NC(=O)[C@H](CCC(N)=O)NC(=O)[C@H](Cc2c[nH]c3ccc(O)cc23)NC(=O)[C@H](Cc2ccccc2)NC(=O)C2(CCCCC2)NC(=O)[C@H]2CCCN2C(=O)[C@H](Cc2ccc(O)cc2)NC(=O)[C@H](CCC(=O)O)NC(=O)[C@H](Cc2c[nH]c3ccccc23)NC1=O [compound 35, cyclo(-Phe-Trp(5OH)-Gln-Tyr-Ala-Trp-Glu-Tyr-^DPro-Chx-)] (cyclo(F[Trp(5-OH)]QYAWEY[dP][Ac6c])) | 1.1 ± 0.5 |
| CC(C)C[C@@H]1NC(=O)[C@H](CCC(=O)O)NC(=O)[C@H](Cc2ccccc2)NC(=O)C2(CCCCC2)NC(=O)[C@H]2CCCN2C(=O)[C@H](Cc2ccc(O)cc2)NC(=O)[C@H](CCCNC(N)=O)NC(=O)[C@H](Cc2c[nH]c3ccccc23)NC(=O)[C@H](C)NC(=O)[C@H](Cc2ccc(O)cc2)NC1=O [compound 38, cyclo(-Phe-Glu-Leu-Tyr-Ala-Trp-Cit-Tyr-^DPro-Chx-)] (cyclo(FELYAW[Cit]Y[dP][Ac6c])) | 0.93 |
| CC(C)C[C@@H]1NC(=O)[C@H](CCC(N)=O)NC(=O)[C@H](Cc2ccccc2)NC(=O)C2(CCCCC2)NC(=O)[C@H]2CCCN2C(=O)[C@H](Cc2ccc(O)cc2)NC(=O)[C@H](CCC(=O)O)NC(=O)[C@H](Cc2c[nH]c3ccccc23)NC(=O)[C@H](C)NC(=O)[C@H](Cc2ccc(O)cc2)NC1=O [compound 40, cyclo(-Phe-Gln-Leu-Tyr-Ala-Trp-Glu-Tyr-^DPro-Chx-)] (cyclo(FQLYAWEY[dP][Ac6c])) | 1.2 ± 0.6 |
